Measured values as given in US6748900B2, “Methods for growing and imprinting fish using an odorant” (MariCal, Inc., priority 2001, dated 2004).
“Also recorded” adds a separate entry of the source.

How the values were obtained:
[1] = test system: olfactory epithelium of freshwater adapted juvenile salmon; test: Extracellular electrical potentials (EEG) from olfactory nerve after bolus stimuli to the olfactory epithelium in distilled water; assay type: in vivo, Atlantic salmon (Salmo salar); conditions: for concentration dependence of olfactory nerve impulse: exposure of fish olfactory epithelium
Excerpt: The present invention provides methods for identifying and/or quantifying the effects of PVCR modulators on olfactory receptor sensing and visa versa. The present invention also includes methods for determining whether a compound is an odorant. When fish are exposed to an odorant (e.g., the odorant binds to olfactory lamellae), the odorant binds to the olfactory epithelium of the fish, which leads to the generation of a nerve impulse. The electric potential of the impulse can be measured using methods known in the art, or those later developed. One example of a method that can be used to measure electric potential is an electroencephalogram, commonly referred to as an EEG. Example 3 describes in detail how to measure nerve impulse of fish, and in particular, as it relates to modulation of the PVCR in the olfactory apparatus of the fish. Briefly, the fish are anaesthetized and placed in V-clamp apparatus where its gills were irrigated continuously with aerated seawater and its nasal lamellae bathed continuously by a stream of distilled water via a tube held in position in the inhalant olfactory opening. The olfactory nerves of the fish were exposed by removal of overlying bony structures. Odorants to be tested can be delivered as boluses to the olfactory epithelium via a 3 way valve where 1 cc of water containing the stimulus was rapidly injected into the tube containing a continuously stream of distilled water. […] The results can be analyzed by computer using compatible software.
(§1) Physiol. A 127:157-166 (1975), and Hubbard, PC, et al., Olfactory sensitivity to changes in environmental Ca2+ in the marine teleost Sparus Aurata, J. Exp. Biol. 203:3821-3829 (2000). After anaesthetizing the fish, it was placed in V-clamp apparatus where its gills were irrigated continuously with aerated seawater and its nasal lamellae bathed continuously by a stream of distilled water via a tube held in position in the inhalant olfactory opening. The olfactory nerves of the fish were exposed by removal of overlying bony structures. Stimuli were delivered as boluses to the olfactory epithelium via a 3 way valve where 1 cc of water containing the stimulus was rapidly injected into the tube containing a continuously stream of distilled water. […] Using this experimental approach, stable and reproducible recordings could be obtained for up to 6 hr after the initial surgery on the fish.
Similarly, exposure of olfactory epithelium to the PVCR agonist Gd^3+ produces responses of a similar magnitude to those evoked by Ca^2+ in a concentration range of 1-10 micromolar. […] These dose response curves (EC50 Gd^+3≦Ca^2+<Mg^2+) are similar to those obtained for PVCR modulated responses in other fish epithelium (flounder urinary bladder NaCl-mediated water transport-see SKCaR application).

[2] = test system: nasal lamellae of Atlantic salmon; test: Olfactory response to stimuli alone or in combination with 500 mM NaCl (FIGS. 12B-12D); assay type: in vivo, Atlantic salmon (Salmo salar)
Description: Stimuli were delivered to the olfactory epithelium via a glass capillary tube placed in the inhalant olfactory opening. This tube was connected to a gravity fed tubing system allowing for switching from a background perfusion (charcoal filtered freshwater) to an experimental stimulus while maintaining a flow rate of 6-8 ml/min. Verification of the location of the stimulus delivery tubes and electrode was made by observing responses to a ‘search stimulus’ of […].
Stimuli consisted of CaR agonists (CaCl2, MgCl2, GdCl3, SrCl2 and NaCl (Sigma-Aldrich), control freshwater stimulus (charcoal filtered tap water) and control seawater stimuli (ASW, Ca-free ASW, Divalent free ASW). Stimuli were presented alone or in combination with 500 mM NaCl. Ringers and artificial seawater recipes were obtained from the Biological Bulletin Compendia (all concentrations are in mM) ASW (nAcl 423, KCl 9.0, CaCl2 22.94, MgSO4 25.50, NaHCO3 2.14, pH 8.0); Ca-free ASW (NaCl 436.71, KCl 9.0, MgCl2 22.94, MgSO4, 25.5, NaHCO3 2.14, pH 8.0); Divalent free ASW (NaCl 461.85, KCl 10.73, NAHCO3 2.14, Na2SO4 7.04, pH 8.0); FW Teleost Ringer's (NaCl 111.0, KCl 5.37, Cacl2 1.0, MgSO4, 0.6, HEPES 5.0, pH 7.3).

[3] = test system: olfactory epithelium; test: Olfactory nerve recording: PVCR agonists added to a repellant (finger rinse) or an attractant (L-alanine); assay type: in vivo, Atlantic salmon (Salmo salar); conditions: for effect on response of olfactory epithelium to mammalian finger rinse: FIG. 13
Excerpt: as §1
The ablation of responses to both the PVCR agonists as shown in FIG. 12A as well as mammalian finger rinse indicate that there are some complex interactions between PVCR proteins and other odorant receptors. It is also extremely unlikely that inclusion of PVCR agonists removed all the stimulatory components of mammalian finger rinse from solution such that they were not able to stimulate the epithelium.

[4] = test system: shark kidney calcium receptor (SKCaR); test: FURA-2 ratio imaging fluorescence of HEK cells stably expressing SKCaR; assay type: cell-based, dogfish (Squalus acanthias); conditions: 10 mM amino acid; for effect on SKCaR's response to a given Ca^2+ concentration: FIG. 16
Description: Full length recombinant dogfish (Squalus acanthias) shark kidney calcium receptor (SKCaR) was expressed in human embryonic kidney cells using methods described herein. The ability of SKCaR to respond to individual amino acids as well as various mixtures was quantified using FURA-2 ratio imaging fluorescence.
Baseline extracellular Ca^2+ concentration was 0.5 mM. Aliquots of Ca^2+ were added to produce final extracellular concentrations of 2.5 mM, 5 mM, 7.5 mM, 10 mM and 20 mM Ca^2+ with changes in the fluorescence recorded. Note that increases in cell fluorescence were greater in the presence of 10 mM Phe for extracellular Ca^2+ concentrations less than 10 mM.

[5] = 1 mM agonist with 500 mM NaCl, FIG. 12D
[6] = 500 micromolar stimulus, FIG. 11

[Ca+2] [Ca^2+, calcium]
olfactory nerve response (EEG activity) ([1]; 1 mM stimulus, FIG. 11): responses in EEG activity | olfactory nerve response (EEG activity) ([1]; 1 mM stimulus, FIG. 11, listed as calcium): existence of an olfactory recording | EC50 ([1]; FIG. 12A, responses normalized to 10 mM Ca^2+, multiple fish, read-out: half maximal excitatory response (EC50)): 1 to 10 µM | concentration dependence of olfactory nerve impulse [1]: concentration-dependent olfactory nerve impulse | effect on olfactory response to 500 mM NaCl [2, 5]: significantly reduce the olfactory response | olfactory response in a 500 mM NaCl solution ([2]; 10 mM in 500 mM NaCl, FIG. 12C): identical to that produced by artificial seawater (ASW) exposure | effect on olfactory response produced by 500 mM NaCl ([2]; FIG. 12C, various concentrations in 500 mM NaCl): reduces the olfactory response | effect on olfactory nerve response to 500 micromolar L-alanine ([3]; 5 mM added, FIG. 14 recording #2): complete loss of the corresponding response | effect on response of olfactory epithelium to mammalian finger rinse ([3]; 5 mM agonist included): reversibly ablated the response | response to subsequent identical L-alanine stimulus without the agonist ([3]; after 5 mM, FIG. 14 recording #3): return of the signal

[Gd+3] [Gd^3+, gadolinium]
olfactory nerve response ([1]; 50 micromolar stimulus, FIG. 11, listed as Gadolinium): existence of an olfactory recording | olfactory nerve response ([1]; 50 micromolar stimulus, FIG. 11, listed as gadolinium): obtained a response | concentration range producing responses of a similar magnitude to those evoked by Ca^2+ ([1]; FIG. 12A): 1 to 10 µM | concentration dependence of olfactory nerve impulse [1]: concentration-dependent olfactory nerve impulse | effect on olfactory response to 500 mM NaCl ([2]; 50 micromolar agonist with 500 mM NaCl, FIG. 12D): significantly reduce the olfactory response | effect on olfactory nerve response to 500 micromolar L-alanine ([3]; 50 micromolar added, FIG. 14 recording #7): complete loss of the corresponding response | effect on response of olfactory epithelium to mammalian finger rinse ([3]; 50 micromolar agonist included): reversibly ablated the response | effect on response of olfactory epithelium to mammalian finger rinse ([3]; 50 micromolar agonist included, listed as gadolinium): reversibly altered | response to subsequent identical L-alanine stimulus without the agonist ([3]; after 50 micromolar, FIG. 14 recording #8 vs #6): return of the signal; also recorded: decreased as compared to control

CC[C@H](C)[C@H](N)C(=O)O [Ile, L-Isoleucine]
effect on SKCaR's response to a given Ca^2+ concentration [4]: increase SKCaR's response

C[C@H](N)C(=O)O [L-alanine]
duration of olfactory nerve response [1, 6]: approximately 2 seconds | olfactory nerve response [1, 6]: large increases in both the firing frequency and amplitude; also recorded: existence of an olfactory recording

[Mg+2] [Mg^2+, magnesium]
concentration at which olfactory epithelium responses first occur ([1]; FIG. 12A): 10 to 100 µM | concentration dependence of olfactory nerve impulse [1]: concentration-dependent olfactory nerve impulse | effect on olfactory response to 500 mM NaCl [2, 5]: significantly reduce the olfactory response

[Cl-].[Na+] [NaCl, sodium chloride]
olfactory nerve response (EEG activity) ([1]; 250 mM stimulus, FIG. 11): responses in EEG activity; also recorded: existence of an olfactory recording | concentration until which olfactory epithelium is unresponsive ([1]; FIG. 12A): 250 millimolar | olfactory response to irrigation of the nasal lamellae ([2]; 500 mM alone, FIG. 12D): large response | response to subsequent L-Alanine alone ([3]; after 250 mM, FIG. 14 recordings #5 and #10): enhanced response to L-Alanine alone

N[C@@H](Cc1ccccc1)C(=O)O [Phe, L-Phenylalanine]
effect on SKCaR's response to a given Ca^2+ concentration [4]: increase SKCaR's response | increases in cell fluorescence on addition of extracellular Ca^2+ ([4]; extracellular Ca^2+ less than 10 mM, FIG. 15): greater

[Sr+2] [Sr2+, strontium]
effect on olfactory response to 500 mM NaCl [2, 5]: significantly reduce the olfactory response

neomycin
concentration dependence of olfactory nerve impulse [1]: concentration-dependent olfactory nerve impulse
